≈ marks a conversion by molar mass, not a printed value.

In data set [1] the target is T1, Glutathione S-transferase omega-1 (Homo sapiens, UniProt P78417).
T1 sequence (P78417 whole entry): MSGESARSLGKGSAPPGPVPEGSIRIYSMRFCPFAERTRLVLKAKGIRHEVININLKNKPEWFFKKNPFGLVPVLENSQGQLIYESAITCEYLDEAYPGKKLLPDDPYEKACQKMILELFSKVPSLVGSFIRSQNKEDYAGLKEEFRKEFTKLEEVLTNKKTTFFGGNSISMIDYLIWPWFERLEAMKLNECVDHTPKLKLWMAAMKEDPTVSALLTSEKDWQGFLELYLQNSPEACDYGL
The experiment in a line: Inhibition of recombinant GSTO1-1 (unknown origin) expressed in Escherichia coli using S-(4-nitrophenacyl)glutathione as substrate preincubated for 2 mins followed by substrate addition by 4-NPG assay.

The target in data set [2] is T2, Glutathione S-transferase omega-1 (Mus musculus) (UniProt O09131).
T2 sequence (whole entry): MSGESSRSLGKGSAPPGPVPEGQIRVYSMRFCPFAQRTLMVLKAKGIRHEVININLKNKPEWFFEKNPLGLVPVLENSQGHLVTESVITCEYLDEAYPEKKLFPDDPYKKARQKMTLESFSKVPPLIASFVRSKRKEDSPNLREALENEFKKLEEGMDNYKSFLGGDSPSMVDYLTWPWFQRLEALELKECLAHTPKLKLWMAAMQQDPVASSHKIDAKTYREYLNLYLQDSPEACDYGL
Put plainly: Inhibition of GSTO1-1 in mouse bone marrow derived macrophage cells assessed as reduction in LPS-induced IL-1beta release by measuring IL1 beta level at 5 uM pretreated with LPS for 3 hrs followed by compound addition and measured after 1 hr by ELISA relative to control. Details: scale not given: the % may be the effect or the level left. On the technique in general: In an ELISA, binding on a coated surface is turned into a signal by an enzyme label.

Data set [3] has as its target T1, Glutathione S-transferase omega-1. Put plainly: Inhibition of recombinant GSTO1-1 (unknown origin) expressed in Escherichia coli assessed as inhibitor constant using S-(4-nitrophenacyl)glutathione as substrate preincubated for 1 to 6 mins followed by substrate addition by spectrophotmetric analysis.
Data set [4] concerns the target T3, Glutathione S-transferase omega-1 (Homo sapiens) (UniProt P78417).
T3 sequence (whole entry): T1 sequence (P78417 whole entry)
Description: Inhibition of recombinant GSTO1-1 (unknown origin) expressed in Escherichia coli assessed as Kinact using S-(4-nitrophenacyl)glutathione as substrate preincubated for 1 to 6 mins followed by substrate addition by spectrophotmetric analysis

Data set [5] is described as follows: Half life in Swiss mouse at 30 mg/kg, ip after 0.083 to 24 hrs by UPLC-MS analysis. Format: ADME, organism-based. Particulars: in vivo.
Data set [6] is described as follows: Drug concentration in Swiss mouse plasma at 30 mg/kg, ip measured up to 4 hrs post dose by UPLC-MS analysis. Format: ADME, organism-based.
Data set [7] can be described thus: Cmax in Swiss mouse at 30 […], ip measured at 5 mins post dose by UPLC-MS analysis. Format: ADME, organism-based. Details: route intraperitoneal. As to conditions: in vivo.
The nature of data set [8]: Drug concentration in Swiss mouse plasma at 30 mg/kg, ip measured at 1 hr post dose by UPLC-MS analysis. Format: ADME, organism-based.
Data set [9] can be described thus: Drug level in Swiss mouse plasma at 30 mg/kg, ip after 5 mins by UPLC-MS analysis. Format: ADME, organism-based.
The nature of data set [10]: Kinetic solubility of compound in pH 7.4 phosphate buffer solution after 30 mins by nephelometry. Format: physicochemical. Particulars: read-out: Kinetic_solubility.
Data set [11] can be described thus: Stability in human liver microsomes assessed as drug degradation at 1 uM incubated for 60 mins in absence of NADPH by UPLC-MS analysis. Format: ADME, Microsome. Particulars: 1 h. Background: Liver microsomes are a subcellular fraction often used to study metabolism.
Data set [12] can be described thus: Half life in mouse liver microsomes at 1 uM incubated for 60 mins in presence of NADPH by UPLC-MS analysis. Format: ADME, Microsome.
Data set [13] can be described thus: Stability in mouse liver microsomes assessed as drug degradation at 1 uM incubated for 60 mins in absence of NADPH by UPLC-MS analysis. It counts as ADME, Microsome. Particulars: 1 h.
Data set [14] in a line: Kinetic solubility of compound in water after 30 mins by nephelometry. Particulars: read-out: Kinetic_solubility. Format: physicochemical.
Data set [15] is described as follows: Half life in human liver microsomes at 1 uM incubated for 60 mins in presence of NADPH by UPLC-MS analysis. Format: ADME, Microsome.
Data set [16] is described as follows: Drug concentration in Swiss mouse plasma at 30 mg/kg, ip measured up to 2 hrs post dose by UPLC-MS analysis. Format: ADME, organism-based.

For orientation: IC50 means the concentration that inhibits the measured activity by half. Regarding `CN(C)S(=O)(=O)c1cc(CC2CO2)ccc1Cl` (stereo not given), in data set [1], the IC50 was greater than 100 µM.

As for `CN(C)S(=O)(=O)c1cc(CCCS(=O)(=O)F)ccc1Cl`, in [1], the IC50 was 3.2 µM.

On to `CN(C)S(=O)(=O)c1cc(NC(=O)CCCl)ccc1Cl`, for which, in [1], the IC50 was greater than 10 µM.

For orientation: Ki means the dissociation constant of the complex between target and ligand, obtained from inhibition or displacement. Consider `CN(C)S(=O)(=O)c1cc(CS(=O)(=O)F)ccc1Cl`, for which the Activity in data set [2] worked out at 39.8%. Moreover, in [3], the Ki turned out to be 9.6 µM. The IC50 in data set [1] was 0.8 µM. Also, in data set [4], the Kinact was found to be 2.3 min⁻¹.

Take `O=C(CCl)Nc1ccc(Cl)c(S(=O)(=O)NC2CCOC2)c1` (stereo not given): the IC50 in [1] is 0.34 µM.

Regarding `O=C(CCl)Nc1ccc(Cl)c(S(=O)(=O)NCCO)c1`, the IC50 in [1] is 0.7 µM.

As to `CN(C)S(=O)(=O)c1cc(C2CO2)ccc1Cl` (stereo not given), the Activity in [2] worked out at 43.7%. In [3], the Ki came out at 5 µM. The IC50 in data set [1] worked out at 1.2 µM. In addition, the Kinact in data set [4] was 0.47 min⁻¹.

For `CN(C)S(=O)(=O)c1cc(NC(=O)CCl)ccc1OC(F)(F)F`, the IC50 in [1] stood at 0.21 µM.

Regarding `COCCNS(=O)(=O)c1cc(NC(=O)CCl)ccc1Cl`, the Activity in data set [2] was determined as 47.8%. Moreover, the Ki in data set [3] turned out to be 2.5 µM. The IC50 in data set [1] was 0.03 µM. In data set [4], the Kinact came to 0.8 min⁻¹.

On to `CN(C)S(=O)(=O)c1cc(NC(=O)CCl)ccc1Br`, for which the IC50 in data set [1] was found to be 0.15 µM.

Usually half-life stands for the time in which the quantity being followed falls by half. Usually Cmax stands for the highest concentration seen after dosing. In the case of `O=C(CCl)Nc1ccc(C(F)(F)F)c(S(=O)(=O)N2CCOCC2)c1`, the half-life in [5] was 84 min. Moreover, the Activity in data set [2] was 3.4%. In data set [6], this compound yielded a concentration at 4 h of 6.5 nM. The Ki in [3] was 0.61 µM. In addition, the IC50 in data set [1] was determined as 0.25 µM. In addition, the Kinact in data set [4] came out at 0.85 min⁻¹. In data set [7], this compound had a Cmax of 6370 nM.

Regarding `CN(CCO)S(=O)(=O)c1cc(NC(=O)CCl)ccc1Cl`, the IC50 in [1] is 0.18 µM.

On to `O=C(CCl)Nc1ccc(Cl)c(S(=O)(=O)N2CCOCC2)c1`, for which, in data set [8], the concentration at 1 h is 7.1 nM. Moreover, the Activity in data set [2] is 24.3%. The same compound showed a concentration at 5 min in data set [9] of 3870 nM. Also, in data set [3], the Ki was 6.7 µM. For the same compound, in [1], the IC50 worked out at 0.16 µM. The Kinact in [4] came out at 8.1 min⁻¹.

For the compound `C=CC(=O)Nc1ccc(Cl)c(S(=O)(=O)N(C)C)c1`, in [2], the Activity was 92.8%.

In the case of `CN(C)S(=O)(=O)c1cc(NCC#N)ccc1Cl`, the IC50 in [1] was greater than 100 µM.

Turning to `CN(C)S(=O)(=O)c1cc(NC(=O)CCl)ccc1I`, the IC50 in data set [1] turned out to be 0.13 µM.

On to `CN(C)S(=O)(=O)c1cc(NC(=O)CC#N)ccc1Cl`, for which the IC50 in data set [1] is greater than 100 µM.

Consider `COCCN(C)S(=O)(=O)c1cc(NC(=O)CCl)ccc1Cl`, for which the Activity in data set [2] was determined as 61.3%. Moreover, the Ki in data set [3] came to 6.9 µM. Further, the IC50 in data set [1] came out at 0.08 µM. This compound had a Kinact in data set [4] of 0.61 min⁻¹.

Take `CN(C)S(=O)(=O)c1cc(NC(=O)CF)ccc1Cl`: the IC50 in data set [1] was greater than 100 µM.

Regarding `CN(C)S(=O)(=O)c1cc(CCS(=O)(=O)F)ccc1Cl`, the IC50 in [1] was greater than 10 µM.

With `CN(C)S(=O)(=O)c1cc(NC(=O)CCl)ccc1Cl`, the solubility kinetic at 0.5 h in data set [10] and in data set [14] was 50 to 100 µg/mL (≈ 161 to 321 µM) throughout. Further, the Stability entry in data set [11] and in data set [13] was “Unstable” throughout. In addition, the concentration at 1 h in data set [8] was 32.1 nM. Moreover, the Activity in [2] came out at 66.8%. Further, the figures for the half-life at 1 µM in data set [12] and in [15] were 7 min and less than 2 min, respectively. The same compound gave a Cmax in [7] of 9380 nM.

`CN(C)S(=O)(=O)c1cc(/C=C/S(=O)(=O)F)ccc1Cl`: in data set [1], the IC50 was greater than 10 µM.

On to `CN(C)S(=O)(=O)c1cc(NC(=O)C(N)=O)ccc1Cl`, for which the IC50 in data set [1] is greater than 1000 µM.

For the compound `CC(=O)C(=O)Nc1ccc(Cl)c(S(=O)(=O)N(C)C)c1`, in [1], the IC50 is greater than 10 µM.

As for `C/C=C/C(=O)Nc1ccc(Cl)c(S(=O)(=O)N(C)C)c1`, the IC50 in data set [1] is greater than 100 µM.

Turning to `CN(C)S(=O)(=O)c1cc(NC(=O)CCl)ccc1C(F)(F)F`, the concentration at 2 h in data set [16] is 1.5 nM. Besides, the Activity in [2] was 27.5%. Moreover, the concentration at 5 min in data set [9] was 11600 nM. For the same compound, the inhibition constant Ki in [3] worked out at 1.2 µM. For the same compound, the IC50 in [1] was found to be 0.06 µM. In data set [4], this compound gave a Kinact of 1.1 min⁻¹.

Turning to `CC(C)NS(=O)(=O)c1cc(NC(=O)CCl)ccc1Cl`, the Activity in data set [2] is 36%. Further, the Ki in data set [3] came to 4.8 µM. The IC50 in [1] worked out at 0.07 µM. The compound further registered a Kinact in data set [4] of 3 min⁻¹.

As for `COCCCN(C)S(=O)(=O)c1cc(NC(=O)CCl)ccc1Cl`, in data set [2], the Activity was found to be 41.5%. The IC50 in data set [1] worked out at 0.16 µM.

In the case of `O=C(CCl)Nc1ccc(Cl)c(S(=O)(=O)NCC2CCCO2)c1` (stereo not given), in data set [1], the IC50 stood at 0.2 µM.

As for `CN(C)S(=O)(=O)c1cc(NC(=O)CCl)ccc1-c1ccccc1`, in [1], the IC50 was determined as 0.71 µM.

For `CC(Cl)C(=O)Nc1ccc(Cl)c(S(=O)(=O)N(C)C)c1` (stereo not given), the IC50 in data set [1] was greater than 10 µM.

For `CNS(=O)(=O)c1cc(NC(=O)CCl)ccc1Cl`, in [1], the IC50 worked out at 0.58 µM.

In the case of `COCCCNS(=O)(=O)c1cc(NC(=O)CCl)ccc1Cl`, the Ki in data set [3] came out at 9.9 µM. Besides, in data set [1], the IC50 was determined as 0.11 µM. The Kinact in data set [4] was determined as 1.3 min⁻¹.

Values taken from ChEMBL document CHEMBL4402572, “Development of Benzenesulfonamide Derivatives as Potent Glutathione Transferase Omega-1 Inhibitors” (J Med Chem, 2020).
